Values quoted from earlier work, collected in patent US20090022789A1 (Supernus Pharmaceuticals, Inc., priority 2007, published 2009).

Settings: oral administration, IR form

first-pass metabolism: negligible
Compound: Nc1nnc(-c2cccc(Cl)c2Cl)c(N)n1 [lamotrigine, 3,5-diamino-6-(2,3-dichlorophenyl)-as-triazine]
